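Compound exposure: 48 hours, 5 concentrations, 96-well plates. Here, GI50 denotes the concentration required for 50% inhibition of growth. Definition used: TGI = concentration required for complete inhibition of growth.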
Legend:
Experiment in all cases: NCI-60 cell line screen, 48 h
786-0 renal = test system: 786-0 renal
A498 renal = test system: A498 renal
A549 NSCLC = test system: A549 NSCLC
ACHN renal = test system: ACHN renal
BT-549 breast = test system: BT-549 breast
CAKI-1 renal = test system: CAKI-1 renal
CCRF-CEM leukemia = test system: CCRF-CEM leukemia
COLO 205 colon = test system: COLO 205 colon
DU-145 prostate = test system: DU-145 prostate
EKVX NSCLC = test system: EKVX NSCLC
HCC-2998 colon = test system: HCC-2998 colon
HCT-116 colon = test system: HCT-116 colon
HCT-15 colon = test system: HCT-15 colon
HL-60(TB) leukemia = test system: HL-60(TB) leukemia
HOP-62 NSCLC = test system: HOP-62 NSCLC
HOP-92 NSCLC = test system: HOP-92 NSCLC
HS 578T breast = test system: HS 578T breast
HT29 colon = test system: HT29 colon
IGROV1 ovarian = test system: IGROV1 ovarian
K-562 leukemia = test system: K-562 leukemia
KM12 colon = test system: KM12 colon
LOX IMVI melanoma = test system: LOX IMVI melanoma
M14 melanoma = test system: M14 melanoma
MALME-3M melanoma = test system: MALME-3M melanoma
MCF7 breast = test system: MCF7 breast
MDA-MB-435 = test system: MDA-MB-435
MDA-MB-468 breast = test system: MDA-MB-468 breast
MOLT-4 leukemia = test system: MOLT-4 leukemia
NCI-H226 lung = test system: NCI-H226 lung
NCI-H23 lung = test system: NCI-H23 lung
NCI-H460 lung = test system: NCI-H460 lung
NCI-H522 lung = test system: NCI-H522 lung
NCI/ADR-RES ovarian = test system: NCI/ADR-RES ovarian
OVCAR-3 ovarian = test system: OVCAR-3 ovarian
OVCAR-4 ovarian = test system: OVCAR-4 ovarian
OVCAR-5 ovarian = test system: OVCAR-5 ovarian
OVCAR-8 ovarian = test system: OVCAR-8 ovarian
PC-3 prostate = test system: PC-3 prostate
RPMI-8226 leukemia = test system: RPMI-8226 leukemia
RXF 393 renal = test system: RXF 393 renal
SF-268 CNS = test system: SF-268 CNS
SF-295 CNS = test system: SF-295 CNS
SF-539 CNS = test system: SF-539 CNS
SK-MEL-2 melanoma = test system: SK-MEL-2 melanoma
SK-MEL-28 melanoma = test system: SK-MEL-28 melanoma
SK-MEL-5 melanoma = test system: SK-MEL-5 melanoma
SK-OV-3 ovarian = test system: SK-OV-3 ovarian
SNB-75 CNS = test system: SNB-75 CNS
SW-620 colon = test system: SW-620 colon
T-47D breast = test system: T-47D breast
TK-10 renal = test system: TK-10 renal
U251 CNS = test system: U251 CNS
UACC-257 melanoma = test system: UACC-257 melanoma
UO-31 renal = test system: UO-31 renal

With `CN(C)c1nc(NCCNS(=O)(=O)c2ccc(C3=Nc4c(N)nc(N)nc4NC(c4ccc(C(F)(F)F)cc4)C3)cc2)nc(Nc2ccc(F)cc2)n1` (stereo not drawn) as the compound, how does the GI50 (786-0 renal) read?
The GI50 was 10.1 µM.

And the TGI (786-0 renal)?
Its TGI is 39.8 µM.

What about the GI50 (A498 renal) of the same compound?
Its GI50 is 22.2 µM.

And the TGI (A498 renal)?
The TGI was 77.4 µM.

And the GI50 (A549 NSCLC)?
The GI50 was 55 µM.

What about the TGI (A549 NSCLC) of the same compound?
Its TGI is > 86 µM.

What about the GI50 (ACHN renal) of the same compound?
The GI50 was > 86 µM.

And the TGI (ACHN renal)?
The TGI was > 86 µM.

What about the GI50 (BT-549 breast) of the same compound?
Its GI50 is 11.8 µM.

And the TGI (BT-549 breast)?
The TGI was 32.6 µM.

What about the GI50 (CAKI-1 renal) of the same compound?
The GI50 was 36.8 µM.

What about the TGI (CAKI-1 renal) of the same compound?
The TGI was > 86 µM.

And the GI50 (CCRF-CEM leukemia)?
Its GI50 is 3.24 µM.

What about the TGI (CCRF-CEM leukemia) of the same compound?
The TGI was > 86 µM.

And the GI50 (COLO 205 colon)?
Its GI50 is 9.73 µM.

What about the TGI (COLO 205 colon) of the same compound?
Its TGI is 21.8 µM.

What about the GI50 (DU-145 prostate) of the same compound?
The GI50 was 38.5 µM.

And the TGI (DU-145 prostate)?
Its TGI is > 86 µM.

What about the GI50 (EKVX NSCLC) of the same compound?
Its GI50 is 5.52 µM.

What about the TGI (EKVX NSCLC) of the same compound?
Its TGI is > 86 µM.

What about the GI50 (HCC-2998 colon) of the same compound?
Its GI50 is 4.72 µM.

And the TGI (HCC-2998 colon)?
The TGI was 25.9 µM.

What about the GI50 (HCT-116 colon) of the same compound?
Its GI50 is 5.1 µM.

What about the TGI (HCT-116 colon) of the same compound?
Its TGI is > 86 µM.

What about the GI50 (HCT-15 colon) of the same compound?
The GI50 was 55.1 µM.

What about the TGI (HCT-15 colon) of the same compound?
Its TGI is > 86 µM.

And the GI50 (HL-60(TB) leukemia)?
The GI50 was 4.07 µM.

What about the TGI (HL-60(TB) leukemia) of the same compound?
Its TGI is > 86 µM.

And the GI50 (HOP-62 NSCLC)?
Its GI50 is 31.4 µM.

And the TGI (HOP-62 NSCLC)?
The TGI was > 86 µM.

What about the GI50 (HOP-92 NSCLC) of the same compound?
The GI50 was 2990 nM.

What about the TGI (HOP-92 NSCLC) of the same compound?
Its TGI is 16.9 µM.

And the GI50 (HS 578T breast)?
Its GI50 is 9.03 µM.

What about the TGI (HS 578T breast) of the same compound?
Its TGI is > 86 µM.

What about the GI50 (HT29 colon) of the same compound?
Its GI50 is 4.88 µM.

What about the TGI (HT29 colon) of the same compound?
The TGI was 18.3 µM.

And the GI50 (IGROV1 ovarian)?
Its GI50 is 11.2 µM.

And the TGI (IGROV1 ovarian)?
The TGI was > 86 µM.

And the GI50 (K-562 leukemia)?
The GI50 was 3.51 µM.

And the TGI (K-562 leukemia)?
Its TGI is > 86 µM.

And the GI50 (KM12 colon)?
Its GI50 is 6.14 µM.

What about the TGI (KM12 colon) of the same compound?
Its TGI is > 86 µM.

And the GI50 (LOX IMVI melanoma)?
The GI50 was 3.14 µM.

And the TGI (LOX IMVI melanoma)?
The TGI was 12 µM.

And the GI50 (M14 melanoma)?
The GI50 was 7.87 µM.

And the TGI (M14 melanoma)?
Its TGI is > 86 µM.

And the GI50 (MALME-3M melanoma)?
Its GI50 is 11.3 µM.

And the TGI (MALME-3M melanoma)?
Its TGI is 24.2 µM.

What about the GI50 (MCF7 breast) of the same compound?
Its GI50 is 2870 nM.

What about the TGI (MCF7 breast) of the same compound?
Its TGI is 21 µM.

And the GI50 (MDA-MB-435)?
The GI50 was 9.13 µM.

What about the TGI (MDA-MB-435) of the same compound?
Its TGI is > 86 µM.

And the GI50 (MDA-MB-468 breast)?
Its GI50 is 2670 nM.

And the TGI (MDA-MB-468 breast)?
The TGI was 11.7 µM.

What about the GI50 (MOLT-4 leukemia) of the same compound?
Its GI50 is 2740 nM.

And the TGI (MOLT-4 leukemia)?
The TGI was > 86 µM.

What about the GI50 (NCI-H226 lung) of the same compound?
Its GI50 is 37.3 µM.

And the TGI (NCI-H226 lung)?
The TGI was > 86 µM.

And the GI50 (NCI-H23 lung)?
The GI50 was 27.7 µM.

And the TGI (NCI-H23 lung)?
The TGI was > 86 µM.

And the GI50 (NCI-H460 lung)?
The GI50 was 5.49 µM.

What about the TGI (NCI-H460 lung) of the same compound?
The TGI was > 86 µM.

What about the GI50 (NCI-H522 lung) of the same compound?
The GI50 was 17.8 µM.

What about the TGI (NCI-H522 lung) of the same compound?
The TGI was 44.8 µM.

And the GI50 (NCI/ADR-RES ovarian)?
Its GI50 is > 86 µM.

What about the TGI (NCI/ADR-RES ovarian) of the same compound?
The TGI was > 86 µM.

What about the GI50 (OVCAR-3 ovarian) of the same compound?
Its GI50 is 11.9 µM.

And the TGI (OVCAR-3 ovarian)?
The TGI was > 86 µM.

And the GI50 (OVCAR-4 ovarian)?
Its GI50 is 25 µM.

And the TGI (OVCAR-4 ovarian)?
The TGI was > 86 µM.

And the GI50 (OVCAR-5 ovarian)?
Its GI50 is 19.9 µM.

What about the TGI (OVCAR-5 ovarian) of the same compound?
Its TGI is > 86 µM.

What about the GI50 (OVCAR-8 ovarian) of the same compound?
Its GI50 is 26.1 µM.

And the TGI (OVCAR-8 ovarian)?
Its TGI is > 86 µM.

And the GI50 (PC-3 prostate)?
The GI50 was 4.37 µM.

And the TGI (PC-3 prostate)?
Its TGI is > 86 µM.

And the GI50 (RPMI-8226 leukemia)?
The GI50 was 4 µM.

What about the TGI (RPMI-8226 leukemia) of the same compound?
Its TGI is > 86 µM.

What about the GI50 (RXF 393 renal) of the same compound?
Its GI50 is 2570 nM.

What about the TGI (RXF 393 renal) of the same compound?
Its TGI is 18.8 µM.

And the GI50 (SF-268 CNS)?
Its GI50 is 11.2 µM.

And the TGI (SF-268 CNS)?
The TGI was > 86 µM.

What about the GI50 (SF-295 CNS) of the same compound?
The GI50 was 12.9 µM.

And the TGI (SF-295 CNS)?
The TGI was > 86 µM.

What about the GI50 (SF-539 CNS) of the same compound?
The GI50 was 6.22 µM.

What about the TGI (SF-539 CNS) of the same compound?
The TGI was 24.7 µM.

What about the GI50 (SK-MEL-2 melanoma) of the same compound?
The GI50 was 10.8 µM.

What about the TGI (SK-MEL-2 melanoma) of the same compound?
The TGI was 24.7 µM.

And the GI50 (SK-MEL-28 melanoma)?
Its GI50 is 15 µM.

And the TGI (SK-MEL-28 melanoma)?
Its TGI is > 86 µM.

And the GI50 (SK-MEL-5 melanoma)?
Its GI50 is 10.4 µM.

And the TGI (SK-MEL-5 melanoma)?
The TGI was 21.3 µM.

What about the GI50 (SK-OV-3 ovarian) of the same compound?
The GI50 was > 86 µM.

What about the TGI (SK-OV-3 ovarian) of the same compound?
The TGI was > 86 µM.

What about the GI50 (SNB-75 CNS) of the same compound?
Its GI50 is 2130 nM.

What about the TGI (SNB-75 CNS) of the same compound?
The TGI was > 86 µM.

What about the GI50 (SW-620 colon) of the same compound?
The GI50 was 14.3 µM.

And the TGI (SW-620 colon)?
The TGI was > 86 µM.

What about the GI50 (T-47D breast) of the same compound?
Its GI50 is 12 µM.

And the TGI (T-47D breast)?
The TGI was > 86 µM.

And the GI50 (TK-10 renal)?
The GI50 was > 86 µM.

And the TGI (TK-10 renal)?
The TGI was > 86 µM.

And the GI50 (U251 CNS)?
The GI50 was 5.52 µM.

And the TGI (U251 CNS)?
The TGI was > 86 µM.

And the GI50 (UACC-257 melanoma)?
The GI50 was 23.3 µM.

And the TGI (UACC-257 melanoma)?
Its TGI is > 86 µM.

What about the GI50 (UO-31 renal) of the same compound?
The GI50 was > 86 µM.

What about the TGI (UO-31 renal) of the same compound?
The TGI was > 86 µM.
